Molecules are shown by their SMILES. Bounds are passed on as bounds.

The target of this assay is T1, vanilloid receptor (Rattus norvegicus, UniProt O35433).
T1 construct: DRG nerve cells from the primary culture of 2 days were equilibrated; endogenous in cells; host or cells: primary culture of dorsal root ganglion neurons from neonatal SD rats
T1 sequence (O35433 whole entry): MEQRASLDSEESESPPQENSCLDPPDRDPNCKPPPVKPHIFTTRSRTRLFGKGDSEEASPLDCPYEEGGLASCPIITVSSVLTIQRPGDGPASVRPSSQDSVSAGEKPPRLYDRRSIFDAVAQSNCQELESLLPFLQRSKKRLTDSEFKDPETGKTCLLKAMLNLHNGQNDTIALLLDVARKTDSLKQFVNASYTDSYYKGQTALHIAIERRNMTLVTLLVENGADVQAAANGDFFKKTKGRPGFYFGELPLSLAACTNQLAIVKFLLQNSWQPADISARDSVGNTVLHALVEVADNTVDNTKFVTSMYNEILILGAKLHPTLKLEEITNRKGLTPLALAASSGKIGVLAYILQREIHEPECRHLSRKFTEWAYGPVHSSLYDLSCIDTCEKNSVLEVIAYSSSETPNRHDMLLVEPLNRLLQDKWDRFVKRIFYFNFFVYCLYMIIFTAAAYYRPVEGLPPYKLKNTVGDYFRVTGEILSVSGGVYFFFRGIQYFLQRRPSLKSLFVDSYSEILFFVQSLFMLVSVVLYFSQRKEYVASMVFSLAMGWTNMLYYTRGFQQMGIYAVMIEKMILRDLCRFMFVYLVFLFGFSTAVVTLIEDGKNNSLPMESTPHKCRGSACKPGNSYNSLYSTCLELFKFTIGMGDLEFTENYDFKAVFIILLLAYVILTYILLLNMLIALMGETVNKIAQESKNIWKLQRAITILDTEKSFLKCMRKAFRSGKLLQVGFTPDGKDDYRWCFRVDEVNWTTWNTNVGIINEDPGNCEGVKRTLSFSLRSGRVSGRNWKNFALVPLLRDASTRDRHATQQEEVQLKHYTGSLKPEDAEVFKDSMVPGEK
In words: 45Ca influx test in cultured neonatal rat DRG neurons, inhibition of capsaicin response. It counts as cell-based. The conditions noted are these: neonatal rat DRG neurons, capsaicin 0.5 μM, 45Ca influx; read-out: Antagonist Calcium Uptake Test (IC50). An outline of the steps:
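45Ca influx measured by scintillation counting of SDS-eluted neurons after 10 min at room temperature with test compound, 0.5 μM capsaicin (final) and 10 μCi/ml 45Ca in Ca/Mg-free HEPES-HBSS pH 7.4. Cells: primary DRG neurons from newborn SD rats, cultured 2 days with NGF and Ara-C.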
One may read the IC50 as the midpoint of a concentration-inhibition curve. `CCCCCc1nc(C(F)(F)F)ccc1/C=C/C(=O)NCc1cc(C)c(NS(C)(=O)=O)c(F)c1` [Example 214, N-(3-Fluoro-4-methanesulfonylamino-5-methyl-benzyl)-3-(2-pentyl-6-trifluoromethyl)-pyridin-3-yl-acrylamide]: the IC50 was determined as 98 nM.

Turning to `CCCCc1nc(C(F)(F)F)ccc1C#CC(=O)NCc1ccc(NS(C)(=O)=O)cc1Cl` [Example 263, 3-(2-Butyl-6-trifluoromethyl-pyridin-3-yl)-propynoic acid 2-chloro-4-methanesulfonylamino-benzylamide], the IC50 turned out to be 4700 nM.

On to `CC(C)Cc1nc(C(F)(F)F)ccc1/C=C/C(=O)NCc1ccc(NS(C)(=O)=O)cc1` [Example 265, 3-(2-Isobutyl-6-trifluoromethyl-pyridin-3-yl)-N-(4-methanesulfonylamino-benzyl)-acrylamide], for which the 50% inhibitory concentration (IC50) turned out to be 770 nM.

In the case of `CCC(C)Oc1nc(C(F)(F)F)ccc1/C=C/C(=O)NCc1cc(F)c(NS(C)(=O)=O)c(C#N)c1` (centres unmarked) [Example 106, 3-(2-sec-Butoxy-6-trifluoromethyl-pyridin-3-yl)-N-(3-cyano-5-fluoro-4-methanesulfonylamino-benzyl)-acrylamide], the IC50 is 83 nM. The figure for `C#Cc1cc(CNC(=O)/C=C/c2ccc(C(F)(F)F)nc2NC(C)CC)cc(F)c1NS(C)(=O)=O` (centres unmarked) [Example 117, 3-(2-sec-Butylamino-6-trifluoromethyl-pyridin-3-yl)-N-(3-ethynyl-5-fluoro-4-methanesulfonylamino-benzyl)-acrylamide] is 77 nM; for `COc1nc(C(F)(F)F)ccc1/C=C/C(=O)NCc1ccc(NS(C)(=O)=O)c(F)c1` [Example 60, N-(3-Fluoro-4-methanesulfonylamino-benzyl)-3-(2-methoxy-6-trifluoromethyl-pyridin-3-yl)-acrylamide] it is 2100 nM.

As to `CS(=O)(=O)Nc1ccc(CNC(=O)/C=C/c2cccnc2N2CCOCC2)cc1F` [Example 50, N-(5-fluoro-4-methanesulfonylamino-benzyl)-3-(2-morpholin-4-yl-pyridin-3-yl)-acrylamide], the IC50 is above 10000 nM. Turning to `CCCCCc1nc(C(F)(F)F)ccc1/C=C/C(=O)NCc1cc(F)c(NS(C)(=O)=O)c(F)c1` [Example 199, N-(3,5-Difluoro-4-methanesulfonylamino-benzyl)-3-(2-pentyl-6-trifluoromethyl)-pyridin-3-yl-acrylamide], the IC50 was 92 nM. For `CCN(CC)c1nc(C(F)(F)F)ccc1/C=C/C(=O)NCc1ccc(NS(C)(=O)=O)c(F)c1` [Example 47, 3-(2-Diethylamino-6-trifluoromethyl-pyridin-3-yl)-N-(3-fluoro-4-methanesulfonylamino-benzyl)-acrylamide], the IC50 came to 960 nM.

For the compound `C#Cc1cc(CNC(=O)/C=C/c2ccc(C(F)(F)F)nc2OCC(C)C)cc(F)c1NS(C)(=O)=O` [Example 74, N-(3-Ethynyl-5-fluoro-4-methanesulfonylamino-benzyl)-3-(2-isobutoxy-6-trifluoromethyl-pyridin-3-yl)-acrylamide], the IC50 came out at 510 nM. Turning to `Cc1cc(CNC(=O)/C=C/c2ccc(C(F)(F)F)nc2N2CCOCC2)cc(F)c1NS(C)(=O)=O` [Example 8, N-(3-Fluoro-4-methanesulfonylamino-5-methyl-benzyl)-3-(2-morpholin-4-yl-6-trifluoromethyl-pyridin-3-yl)-acrylamide], the IC50 was 420 nM. In the case of `Cc1cc(CNC(=O)/C=C/c2ccc(C(F)(F)F)nc2NC(C)C)cc(F)c1NS(C)(=O)=O` [Example 220, N-(3-Fluoro-4-methanesulfonylamino-5-methyl-benzyl)-3-(2-isopropylamino-6-trifluoromethyl-pyridin-3-yl)-acrylamide], the IC50 was found to be 71 nM. In the case of `CS(=O)(=O)Nc1ccc(CNC(=O)/C=C/c2ccc(C(F)(F)F)nc2Cl)cc1F` [Example 44, 3-(2-Chloro-6-trifluoromethyl-pyridin-3-yl)-N-(3-fluoro-4-methanesulfonylamino-benzyl)-acrylamide] it was above 10000 nM; in that of `CCCCc1nc(C(F)(F)F)ccc1/C=C/C(=O)N[C@H](C)c1cc(F)c(NS(C)(=O)=O)c(F)c1` [Example 228, (R)-3-(2-Butyl-6-trifluoromethyl-pyridin-3-yl)-N-[1-(3,5-difluoro-4-methanesulfonylamino-phenyl)-ethyl]-acrylamide], 12 nM; in that of `C#Cc1cc(CNC(=O)/C=C/c2ccc(C(F)(F)F)nc2-c2cccc(F)c2)cc(F)c1NS(C)(=O)=O` [Example 120, N-(3-Ethynyl-5-fluoro-4-methanesulfonylamino-benzyl)-3-[2-(3-fluoro-phenyl)-6-trifluoromethyl-pyridin-3-yl]-acrylamide], 310 nM.

As to `C#Cc1cc(CNC(=O)/C=C/c2cnc(C(C)(C)C)cc2C(F)(F)F)cc(F)c1NS(C)(=O)=O` [Example 18, 3-(6-tert-Butyl-4-trifluoromethyl-pyridin-3-yl)-N-(3-ethynyl-5-fluoro-4-methanesulfonylamino-benzyl)-acrylamide], the IC50 was 130 nM. In the case of `CCC(C)Nc1nc(C(F)(F)F)ccc1/C=C/C(=O)N[C@H](C)c1ccc(NS(C)(=O)=O)c(F)c1` (stereo partly drawn) [Example 210, (R)-3-(2-sec-Butylamino-6-trifluoromethyl-pyridin-3-yl)-N-[1-(3-fluoro-4-methanesulfonylamino-phenyl)-ethyl]-acrylamide] it was 22 nM; in that of `CS(=O)(=O)Nc1ccc(CNC(=O)/C=C/c2ccc(C(F)(F)F)nc2)cc1F` [Example 58, N-(3-Fluoro-4-methanesulfonylamino-benzyl)-3-(6-trifluoromethyl-pyridin-3-yl)-acrylamide], above 10000 nM. On to `CS(=O)(=O)Nc1c(F)cc(CNC(=O)/C=C/c2ccc(C(F)(F)F)nc2N2CCCCC2)cc1F` [Example 200, N-(4-Methanesulfonylamino-3,5-difluoro-benzyl)-3-(2-piperid-1-yl-6-trifluoromethyl-pyridin-3-yl)-acrylamide], for which the IC50 was 580 nM. The figure for `CCNc1nc(C(F)(F)F)ccc1/C=C/C(=O)N[C@H](C)c1cc(F)c(NS(C)(=O)=O)c(F)c1` [Example 244, (R)—N-[1-(3,5-Difluoro-4-methanesulfonylamino-phenyl)-ethyl]-3-(2-ethylamino-6-trifluoromethyl-pyridin-3-yl)-acrylamide] is 67 nM; for `CC(C)Nc1nc(C(F)(F)F)ccc1/C=C/C(=O)NCc1cc(F)c(NS(C)(=O)=O)c(C#N)c1` [Example 122, N-(3-Cyano-5-fluoro-4-methanesulfonylamino-benzyl)-3-(2-isopropylamino-6-trifluoromethyl-pyridin-3-yl)-acrylamide] it is 76 nM; for `Cc1cc(CNC(=O)/C=C/c2ccc(C(F)(F)F)nc2N2CCCCC2)ccc1NS(C)(=O)=O` [Example 184, N-(4-Methanesulfonylamino-3-methyl-benzyl)-3-(2-piperid-1-yl-6-trifluoromethyl-pyridin-3-yl)-acrylamide] it is 230 nM. The figure for `CC(C)Nc1nc(C(F)(F)F)ccc1/C=C/C(=O)N[C@H](C)c1ccc(NS(C)(=O)=O)c(F)c1` [Example 218, (R)—N-[1-(3-Fluoro-4-methanesulfonylamino-phenyl)-ethyl]-3-(2-isopropylamino-6-trifluoromethyl-pyridin-3-yl)-acrylamide] is 46 nM.

Source of the values: patent US7858621B2 (Amorepacific Corporation, priority 2006, dated 2010).
